Source: PubChem BioAssay AID2060884 (Molecular Pharmacology Branch, DTP, NCI, 2025)
“And” between values parts separate entries of the source, which are not always exact repeats. Equal entries are not always repeated. One block for each compound: values may come before it.

System: NCI-H929 complex spheroids, viability % test/control
Experiment: Anticancer human tumor NCI-H929 cell line growth inhibition [RAS];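 also: compound exposure lasted seven days before viability was read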;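 as to viability, T/C: 100% = DMSO vehicle control viability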
Details: for viability, T/C: stronger effect = lower value
In short: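 Multi-cell-type spheroids: tumor cells plus HUVEC endothelial cells and mesenchymal stem cells. RAS-pathway inhibitors were combined with targeted agents, each dosed in half-log steps down from clinical Cmax, or from 10 microM when Cmax was unknown.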

[1] = curve of first compound, second compound 0.000949 µM
[2] = curve of first compound, second compound 0.003 µM
[3] = curve of first compound, second compound 0.00949 µM
[4] = curve of first compound, second compound 0.03 µM
[5] = curve of first compound, second compound 0.0949 µM
[6] = curve of first compound, second compound 0.3 µM
[7] = second compound 0.000949 µM, first compound 0.0316 µM
[8] = second compound 0.000949 µM, first compound 0.1 µM
[9] = second compound 0.000949 µM, first compound 0.316 µM
[10] = second compound 0.000949 µM, first compound 1 µM
[11] = second compound 0.000949 µM, first compound 3.16 µM
[12] = second compound 0.000949 µM, first compound 10 µM
[13] = second compound 0.003 µM, first compound 0.0316 µM
[14] = second compound 0.003 µM, first compound 0.1 µM
[15] = second compound 0.003 µM, first compound 0.316 µM
[16] = second compound 0.003 µM, first compound 1 µM
[17] = second compound 0.003 µM, first compound 3.16 µM
[18] = second compound 0.003 µM, first compound 10 µM
[19] = second compound 0.00949 µM, first compound 0.0316 µM
[20] = second compound 0.00949 µM, first compound 0.1 µM
[21] = second compound 0.00949 µM, first compound 0.316 µM
[22] = second compound 0.00949 µM, first compound 1 µM
[23] = second compound 0.00949 µM, first compound 3.16 µM
[24] = second compound 0.00949 µM, first compound 10 µM
[25] = second compound 0.03 µM, first compound 0.0316 µM
[26] = second compound 0.03 µM, first compound 0.1 µM
[27] = second compound 0.03 µM, first compound 0.316 µM
[28] = second compound 0.03 µM, first compound 1 µM
[29] = second compound 0.03 µM, first compound 3.16 µM
[30] = second compound 0.03 µM, first compound 10 µM
[31] = second compound 0.0949 µM, first compound 0.0316 µM
[32] = second compound 0.0949 µM, first compound 0.1 µM
[33] = second compound 0.0949 µM, first compound 0.316 µM
[34] = second compound 0.0949 µM, first compound 1 µM
[35] = second compound 0.0949 µM, first compound 3.16 µM
[36] = second compound 0.0949 µM, first compound 10 µM
[37] = second compound 0.3 µM, first compound 0.0316 µM
[38] = second compound 0.3 µM, first compound 0.1 µM
[39] = second compound 0.3 µM, first compound 0.316 µM
[40] = second compound 0.3 µM, first compound 1 µM
[41] = second compound 0.3 µM, first compound 3.16 µM
[42] = second compound 0.3 µM, first compound 10 µM

- IC50 (curve of first compound, second compound 0.00316 µM): 0.0632 µM
- IC50 (curve of first compound, second compound 0.01 µM): 0.0647 µM
- IC50 (curve of first compound, second compound 0.0316 µM): 0.065 µM
- IC50 (curve of first compound, second compound 0.1 µM): 0.0642 µM
- IC50 (curve of first compound, second compound 0.316 µM): 0.0655 µM
- IC50 (curve of first compound, second compound 1 µM): 0.0644 µM
Structure (SMILES): CC(C)n1nc(-c2ccc3oc(N)nc3c2)c2c(N)ncnc21 + C=CC(=O)N1CCN(c2nc(OCC3CCCN3C)nc3c(F)c(-c4nc(N)cc(C)c4C(F)(F)F)c(Cl)cc23)C(C)C1
- viability, T/C (second compound 0.00316 µM, first compound 0.000316 µM): 102%
- viability, T/C (second compound 0.00316 µM, first compound 0.001 µM): 104%
- viability, T/C (second compound 0.00316 µM, first compound 0.00316 µM): 112%
- viability, T/C (second compound 0.00316 µM, first compound 0.01 µM): 111%
- viability, T/C (second compound 0.00316 µM, first compound 0.0316 µM): 118%
- viability, T/C (second compound 0.00316 µM, first compound 0.1 µM): 10.6%
- viability, T/C (second compound 0.01 µM, first compound 0.000316 µM): 102%
- viability, T/C (second compound 0.01 µM, first compound 0.001 µM): 107%
- viability, T/C (second compound 0.01 µM, first compound 0.00316 µM): 109%
- viability, T/C (second compound 0.01 µM, first compound 0.01 µM): 114%
- viability, T/C (second compound 0.01 µM, first compound 0.0316 µM): 122%
- viability, T/C (second compound 0.01 µM, first compound 0.1 µM): 13%
- viability, T/C (second compound 0.0316 µM, first compound 0.000316 µM): 98.6%
- viability, T/C (second compound 0.0316 µM, first compound 0.001 µM): 106%
- viability, T/C (second compound 0.0316 µM, first compound 0.00316 µM): 112%
- viability, T/C (second compound 0.0316 µM, first compound 0.01 µM): 117%
- viability, T/C (second compound 0.0316 µM, first compound 0.0316 µM): 126%
- viability, T/C (second compound 0.0316 µM, first compound 0.1 µM): 12.9%
- viability, T/C (second compound 0.1 µM, first compound 0.000316 µM): 95.4%
- viability, T/C (second compound 0.1 µM, first compound 0.001 µM): 106%
- viability, T/C (second compound 0.1 µM, first compound 0.00316 µM): 115%
- viability, T/C (second compound 0.1 µM, first compound 0.01 µM): 117%
- viability, T/C (second compound 0.1 µM, first compound 0.0316 µM): 122%
- viability, T/C (second compound 0.1 µM, first compound 0.1 µM): 11.6%
- viability, T/C (second compound 0.316 µM, first compound 0.000316 µM): 107%
- viability, T/C (second compound 0.316 µM, first compound 0.001 µM): 111%
- viability, T/C (second compound 0.316 µM, first compound 0.00316 µM): 109%
- viability, T/C (second compound 0.316 µM, first compound 0.01 µM): 119%
- viability, T/C (second compound 0.316 µM, first compound 0.0316 µM): 120%
- viability, T/C (second compound 0.316 µM, first compound 0.1 µM): 13.3%
- viability, T/C (second compound 1 µM, first compound 0.000316 µM): 114%
- viability, T/C (second compound 1 µM, first compound 0.001 µM): 110%
- viability, T/C (second compound 1 µM, first compound 0.00316 µM): 112%
- viability, T/C (second compound 1 µM, first compound 0.01 µM): 117%
- viability, T/C (second compound 1 µM, first compound 0.0316 µM): 120%
- viability, T/C (second compound 1 µM, first compound 0.1 µM): 9.93%

- IC50 (curve of compound): 18.3 nM [middle of 4 runs]
Structure (SMILES): Nc1ccn(C2OC(CO)C(O)C2(F)F)c(=O)n1 (stereo not drawn)
- viability, T/C (compound 0.00316 µM): 106% [middle of 4 runs]
- viability, T/C (compound 0.0316 µM): 0.89% (2×) and 1.85% and 1.95%
- viability, T/C (compound 0.1 µM): 1.62% [middle of 4 runs]
- viability, T/C (compound 0.316 µM): 1.71% [middle of 4 runs]
- viability, T/C (compound 1 µM): 1.37% [middle of 4 runs]

- IC50 (curve of compound): 3.45 µM [middle of 4 runs]
Structure (SMILES): CC(C)NCC(C(=O)N1CCN(c2ncnc3c2C(C)CC3O)CC1)c1ccc(Cl)cc1 (stereo not drawn)
- viability, T/C (compound 0.0316 µM): 106% [middle of 4 runs]
- viability, T/C (compound 0.1 µM): 102% [middle of 4 runs]
- viability, T/C (compound 0.316 µM): 108% (2×) and 99.3% and 103%
- viability, T/C (compound 1 µM): 104% (2×) and 62.6% and 71.6%
- viability, T/C (compound 10 µM): 12.8% [middle of 4 runs]

- IC50 [1]: > 10 µM
- IC50 [2]: > 10 µM
- IC50 [3]: > 10 µM
- IC50 [4]: < 0.0316 µM
- IC50 [5]: < 0.0316 µM
- IC50 [6]: < 0.0316 µM
Structure (SMILES): NC1c2ccccc2OC12CCN(c1cnc3c(N4CCCc5ncccc54)n[nH]c3n1)CC2 (stereo not drawn) + CCn1c(-c2cc(N3CCN(C)CC3)cnc2C(C)OC)c2c3cc(ccc31)-c1csc(n1)CC(NC(=O)C1CC1C)C(=O)N1CCCC(N1)C(=O)OCC(C)(C)C2
- viability, T/C [7]: 107%
- viability, T/C [8]: 104%
- viability, T/C [9]: 108%
- viability, T/C [10]: 108%
- viability, T/C [11]: 113%
- viability, T/C [12]: 78.6%
- viability, T/C [13]: 107%
- viability, T/C [14]: 108%
- viability, T/C [15]: 109%
- viability, T/C [16]: 111%
- viability, T/C [17]: 109%
- viability, T/C [18]: 80.9%
- viability, T/C [19]: 121%
- viability, T/C [20]: 128%
- viability, T/C [21]: 128%
- viability, T/C [22]: 125%
- viability, T/C [23]: 121%
- viability, T/C [24]: 87.8%
- viability, T/C [25]: 15.4%
- viability, T/C [26]: 13.8%
- viability, T/C [27]: 14.9%
- viability, T/C [28]: 12.7%
- viability, T/C [29]: 18.3%
- viability, T/C [30]: 12%
- viability, T/C [31]: 3.25%
- viability, T/C [32]: 2.4%
- viability, T/C [33]: 2.09%
- viability, T/C [34]: 2.07%
- viability, T/C [35]: 1.88%
- viability, T/C [36]: 0.76%
- viability, T/C [37]: 1.75%
- viability, T/C [38]: 1.24%
- viability, T/C [39]: 0.73%
- viability, T/C [40]: 0.89%
- viability, T/C [41]: 1.51%
- viability, T/C [42]: 0.19%

- IC50 [1]: > 10 µM
- IC50 [2]: > 10 µM
- IC50 [3]: > 10 µM
- IC50 [4]: > 10 µM
- IC50 [5]: < 0.0316 µM
- IC50 [6]: < 0.0316 µM
Structure (SMILES): C[C@@H](NC(=O)c1ncnc(N)c1Cl)c1ncc(C(=O)Nc2cc(C(F)(F)F)c(Cl)cn2)s1 + CCn1c(-c2cc(N3CCN(C)CC3)cnc2C(C)OC)c2c3cc(ccc31)-c1csc(n1)CC(NC(=O)C1CC1C)C(=O)N1CCCC(N1)C(=O)OCC(C)(C)C2
- viability, T/C [7]: 104%
- viability, T/C [8]: 100%
- viability, T/C [9]: 102%
- viability, T/C [10]: 98.9%
- viability, T/C [11]: 104%
- viability, T/C [12]: 112%
- viability, T/C [13]: 95.8%
- viability, T/C [14]: 99.7%
- viability, T/C [15]: 103%
- viability, T/C [16]: 101%
- viability, T/C [17]: 105%
- viability, T/C [18]: 114%
- viability, T/C [19]: 91.8%
- viability, T/C [20]: 104%
- viability, T/C [21]: 107%
- viability, T/C [22]: 111%
- viability, T/C [23]: 111%
- viability, T/C [24]: 115%
- viability, T/C [25]: 114%
- viability, T/C [26]: 121%
- viability, T/C [27]: 120%
- viability, T/C [28]: 119%
- viability, T/C [29]: 115%
- viability, T/C [30]: 89.2%
- viability, T/C [31]: 19.9%
- viability, T/C [32]: 28.3%
- viability, T/C [33]: 35.9%
- viability, T/C [34]: 43.4%
- viability, T/C [35]: 45.6%
- viability, T/C [36]: 18.5%
- viability, T/C [37]: 6.79%
- viability, T/C [38]: 9.47%
- viability, T/C [39]: 9.99%
- viability, T/C [40]: 13.3%
- viability, T/C [41]: 14.1%
- viability, T/C [42]: 8.3%
